Patent US8623917B2, “Uses of prostacyclin analogs” (The Regents of the University of Colorado, a body corporate, priority 2005, dated 2014)

Assays:
[1] = system: MCA/BHT-induced lung tumors; assay: MCA/BHT lung tumorigenesis protocol, oral Iloprost in diet; format: in vivo, FVB/N mice
Description: (§1) Transgenic mice (Tg^+) and wildtype littermates (Tg^−), 8 to 12 weeks of age, were subjected to two distinct lung carcinogenesis protocols. In the first model, urethane (ethyl carbamate), a carcinogen which selectively induces pulmonary adenomas through genetic mutations in the oncogene ras, was administered in a single intraperitoneal (ip) dose. […] BHT is a tumor promoter and induces reversible pulmonary damage characterized by alveolar type I cell necrosis, selective pulmonary inflammation, and hyperplasia of alveolar type II cells. Controls for both models consisted of mice injected with vehicle alone. The oral administration of Iloprost was investigated and found to have a similar beneficial effects to PGIS overexpression. FVB/N mice were fed a diet of low (0.1%) or high (3.0%) dose Iloprost continuously throughout the experiment and then were subjected to tumorigenesis protocols with either urethane or MCA/BHT. At the conclusion of the experiments, animals were euthanized and tumors enumerated.

[2] = system: urethane-induced lung tumors; assay: Urethane lung tumorigenesis protocol, oral Iloprost in diet; format: in vivo, FVB/N mice
Description: as §1

[3] = system: cancer metastasis to the lung; conditions: Iloprost administered to mice; cited from earlier work
[4] = 3.0% Iloprost diet compared with 0.1%
[5] = diet of low (0.1%) or high (3.0%) dose Iloprost continuously

CC#CCC(C)[C@H](O)/C=C/[C@@H]1[C@H]2C/C(=C/CCCC(=O)O)C[C@H]2C[C@H]1O (some centres unmarked) [Iloprost]
reduction in multiplicity, high versus low dose [1, 4]: greater reduction in multiplicity | tumor multiplicity [1, 5]: significant reduction in tumor multiplicity | reduction in multiplicity, high versus low dose [2, 4]: greater reduction in multiplicity | tumor multiplicity [2, 5]: significant reduction in tumor multiplicity | prevention of cancer metastasis to the lung [3]: did not prevent cancer metastasis to the lung
